# In US11065296B2, “Antimicrobial peptide, its analog and use” (City University of Hong Kong, priority 2018, dated 2021):
# Peptide text beside a SMILES is read from it.
# Tests used:
# [1] = tested on: E. tarda; assay: Host resistance assay, Experiment Two: pre-injection 2 h before bacteria; format: in vivo, Medaka; details: injected 2 h prior to E. tarda
# Experimental: FIG. 11A is a plot showing the effect of Peptide A on viability of cultured mammalian cells, incubated for 48 h in the presence of Peptide A at different concentrations (μg/ml), as determined by MTT assay. Cell viability represented as peptide treated cell numbers over medium-only control. Statistically significant difference as compared to controls (*: p<0.05, **: p<0.01, n=4). FIG. 11B is a plot showing the ability of Peptide A to protect medaka from lethal challenge of E. tarda ([…]). Medaka was injected with 1 μl of Peptide A (0.68 mM), with 1 μl of E. tarda (10^7 CFU/ml) and Peptide A (0.68 mM) mixture, or with E. tarda alone (1 μl of E. tarda:10^7 CFU/ml). […] 20 fish per group. Log-rank (Mantel-Cox) test was applied for the comparison of survival curves (**: p<0.01).
# The efficacy of the synthesized AMP to protect medaka against infection was characterized using host resistance assays with intraperitoneal (i.p.) injection of bacteria using a micro-injection machine (PV820 Pneumatic PicoPump). In Experiment One, 80 medaka fish were used and divided into four groups (20 fish in each group, male, 6 months): (1) Group 1 was injected with only 1 μl of PBS in each fish; (2) Group 2 was injected with only 1 μl of novel AMP (0.68 mM) in each fish; (3) Group 3 was injected with 1 μl of bacteria (at a titer of 5×10^7 CFU/ml); and (4) bacteria and novel AMP were mixed for 5 min and then 1 μl of the mixture was injected into Group 4 (Bacteria: 5×10^7 CFU/ml, AMP: 0.68 mM). In Experiment Two, 60 fish were used and divided into three groups: each fish was injected with 1 μl of PBS, ampicillin (5.7 mM) or Peptide A (1.36 mM). The fish were anesthetized in MS222 for 30 s before microinjection. After two hours, 1 μl of bacteria (5×10^7 CFU/ml) was injected into the fish. All of the fishes were kept under a static condition of 26° C.±1° C., with 14:10 hrs of a light-dark cycle. The water was replaced every two days. The fish were fed three times each day. The number of dead fish was counted on a daily basis until two weeks after the injections.
# [2] = tested on: E. coli PQ37; assay: SOS induction (chromotest); format: cell-based
# Experimental: (§1) Results are expressed as 2^(−Delta Delta C (T)). […] Results are expressed as 2^(−Delta Delta C (T)).
# E. coli PQ37 (Genotype: Sfi A and Lac Z fusion, lac Z) was cultured in lysogeny broth (LB) that contained 57.2 μM of ampicillin overnight (37° C.) and subcultured through 20 dilutions on another day so that OD600 equals to 0.2-0.4. PQ37 was incubated in 0.3 ml AMP (3.4 μM) or Piscidin ([…], 3.77 μM) for 2 hours and then re-suspended in the same volume of Z-buffer (Na2HPO4.7H2O 16.1 g/l, NaH2PO4.2H2O 6.24 g/L, KCl 0.75 g/L, MgSO4.7H2O 0.246 g/L and b-mercaptoethanol 0.3% (v/v)) for carrying out a β-galactosidase assay (β-ga) and alkaline phosphatase assay (ap), respectively. The bacteria were lysed with 0.1 ml of 0.1% SDS and 0.15 ml of chloroform. For the β-ga assay, the reaction was started by adding 0.6 ml of ortho-Nitrophenyl-β-galactoside (ONPG; Catalog number 34055, ThermoFisher Scientific) for color development and then stopped with the addition of 2 ml of 1 M NaCO3 solution. For ap acsay, the reaction was started by adding 0.6 ml of para-Nitrophenylphosphate (PNPP; Catalog number 34045, ThermoFisher Scientific) for color development which was then terminated by the addition of 1 ml of 2 M HCl solution and 1 ml of 2 M Tri-HCl to restore the colour. The absorbance was read at 420 nm against a blank without bacteria. The induction factor (IF) was calculated as the ratio R(x)/R(0) (R(x)=β-g/ap determined for the tested peptide; R(0)=β-g/ap determined for the LB). Furacin (antibiotic) and Piscidin were chosen as the controls. Each experiment was performed in triplicate.
# [3] = tested on: CpxR; assay: Quantitative real-time PCR; format: cell-based; details: E. tarda, Piscidin 7.5 μM, 1 hour
# Description: as §1
# Each group has 6 biological replicates. […] Gene-specific primers were designed with Primer-BLAST (NCBI).
# [4] = tested on: E. coli; format: cell-based
# [5] = tested on: E. coli; assay: Antibacterial activities of the peptide analogs (relative OD600); format: cell-based
# Description: FIG. 10 is a plot showing the antibacterial activities of the peptide analogs on E. coli. C-amidation: C-terminus amidated Peptide A; B1: RIILRAQGALKI; B2: IRIILRAQGALK; B3: RIILR. Results expressed as relative OD600 compared to culture medium group (%) (*: p<0.05, **: p<0.01, n=3)
molecule,measurement,setting,value
"CC1(C)S[C@@H]2[C@H](NC(=O)[C@H](N)c3ccccc3)C(=O)N2[C@H]1C(=O)O [Ampicillin, reference compound]",initial survival rate,"[1]; one day post injection, Peptide A 1.37 mM, Ampicillin 5.7 mM, 1 μl",about 45%
same,effect on E. tarda infection / surviving fish,[1]; two weeks after infection,ineffective
NC(=O)N/N=C/c1ccc([N+](=O)[O-])o1 [Furacin],"SOS response (expression of LacZ), positive control","[2]; E. coli, different doses of Furacin",dose-dependent expression of LacZ
CC(C)C[C@H](NC(=O)[C@H](Cc1ccc(O)cc1)NC(=O)[C@H](Cc1c[nH]cn1)NC(=O)[C@H](CCCCN)NC(=O)[C@H](CC(C)C)NC(=O)[C@H](C)NC(=O)[C@H](CC(C)C)NC(=O)[C@H](CCCCN)NC(=O)CNC(=O)[C@@H](NC(=O)[C@@H](NC(=O)[C@H](CCCCN)NC(=O)[C@@H](NC(=O)[C@H](CCC(=O)O)NC(=O)[C@H](C)NC(=O)[C@H](CCCCN)NC(=O)[C@H](CCCCN)NC(=O)[C@H](CC(C)C)NC(=O)[C@H](CC(C)C)NC(=O)[C@@H](NC(=O)[C@H](CCCNC(=N)N)NC(=O)[C@H](Cc1c[nH]c2ccccc12)NC(=O)CN)[C@@H](C)O)C(C)C)[C@@H](C)O)C(C)C)C(=O)O [Piscidin] (H-GWRTLLKKAEVKTVGKLALKHYL-OH; N-terminus and C-terminus assumed),CpxR gene expression,[3],no effect
same,SOS response (induction factor),"[2]; E. coli PQ37, 120 min, Peptide A 3.4 μM, Piscidin 3.77 μM",no effect on SOS response
same,MIC for E. coli,[4],3.77 µM
"IRIILRAQGALK [Peptide B2, Peptide A with the C-terminal amino acid removed]",antibacterial activity compared with Peptide A,[5],reduce the antibacterial effect
RIILR [Peptide B3],antibacterial activity compared with Peptide A,[5],much weaker antibacterial activity
"RIILRAQGALKI [Peptide B1, Peptide A with the N-terminal amino acid removed]",antibacterial activity compared with Peptide A,[5],reduce the antibacterial effect
